Experimental data reported in patent US20050288333A1 (priority 2004, published 2005).
Where a name gives a salt, the structure may show the parent alone. Read-outs that look alike come from different tables or passages of the source.

Experiments:
[1] = biological target: T1, α4β2 nicotinic acetylcholine receptor (Rattus norvegicus, UniProt P09483+P12390); experiment: [3H]-N-methylcarbamyl choline (3H-MCC) displacement, rat cerebral cortex membranes; type: binding
T1 construct: from tissue; host or cells: rat cerebral cortex membranes
T1 sequence (P09483 31-630): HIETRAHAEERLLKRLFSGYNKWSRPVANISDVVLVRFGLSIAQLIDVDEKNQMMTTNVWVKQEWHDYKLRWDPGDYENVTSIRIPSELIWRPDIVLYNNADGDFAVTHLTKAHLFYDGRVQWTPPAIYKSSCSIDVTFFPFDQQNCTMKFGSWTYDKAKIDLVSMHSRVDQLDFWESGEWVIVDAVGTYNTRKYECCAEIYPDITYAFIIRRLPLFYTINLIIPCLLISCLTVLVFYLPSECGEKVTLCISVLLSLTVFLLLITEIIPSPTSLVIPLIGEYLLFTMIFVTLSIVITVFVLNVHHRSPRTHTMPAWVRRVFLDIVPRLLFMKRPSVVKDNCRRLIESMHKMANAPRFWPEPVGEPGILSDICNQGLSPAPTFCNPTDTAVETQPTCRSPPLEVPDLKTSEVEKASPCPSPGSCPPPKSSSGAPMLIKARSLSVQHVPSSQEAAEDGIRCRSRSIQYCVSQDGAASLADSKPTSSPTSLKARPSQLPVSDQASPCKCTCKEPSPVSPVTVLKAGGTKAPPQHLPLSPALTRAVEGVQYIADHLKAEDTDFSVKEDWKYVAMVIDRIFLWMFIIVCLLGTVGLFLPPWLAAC
T1 sequence (P12390 25-500): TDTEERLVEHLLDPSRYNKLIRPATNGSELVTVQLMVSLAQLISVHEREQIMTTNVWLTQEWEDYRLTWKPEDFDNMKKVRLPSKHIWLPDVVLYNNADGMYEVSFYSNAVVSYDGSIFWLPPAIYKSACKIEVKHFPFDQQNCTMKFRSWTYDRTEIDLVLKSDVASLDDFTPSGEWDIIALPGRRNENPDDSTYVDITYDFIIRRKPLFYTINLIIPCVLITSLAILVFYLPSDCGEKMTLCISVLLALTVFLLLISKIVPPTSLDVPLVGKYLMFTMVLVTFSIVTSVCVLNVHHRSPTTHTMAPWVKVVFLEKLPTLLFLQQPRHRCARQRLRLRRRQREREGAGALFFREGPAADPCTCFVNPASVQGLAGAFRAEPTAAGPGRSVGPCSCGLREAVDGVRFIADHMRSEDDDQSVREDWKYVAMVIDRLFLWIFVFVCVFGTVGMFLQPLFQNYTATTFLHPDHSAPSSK
Experimental: Binding at the α4β2 nicotinic acetyicholine receptor can be measured as described in Abood, et al., Biochem. Pharmacol., 1986, 35:4199, or in Boksa, et al, Eur. J Pharmacol., 1987, 139:323. In essence, washed rat cerebral cortex membranes suspended in ice-cold saline (pH 7.4) were incubated with [^3H]-N-methylcarbamyl choline (^3H—MCC) for 60 minutes before being washed free of unbound radioligand with two rapid washes of the saline solution, using vacuum filtration. The glass filters used to collect the membranes for scintillation counting were pre-equilibrated with polyethyleneimine to reduce ligand binding by the filters.
Atropine sulfate at 12 μM was used to block muscarinic binding sites. Non-specific binding was assessed in the presence of 100 μM carbamylcholine. Thus, the Kd values of the test compounds were determined by their ability to compete for [^3H-acetyl]choline or ^3H—MCC binding. […] Some representative compounds of Formula I were tested for their ability to displace [^3H]—MCC. The Kl values presented in the table are mean values obtained from two separate experiments. […] In Table 3, “NA.” means that the data are not available.

α4β2 nicotinic receptors = α4β2 nicotinic receptors (Rattus norvegicus, UniProt P09483+P12390); experiment: [3H]cytisine binding displacement, washed whole rat brain membranes
Chain of α4β2 nicotinic receptors (P09483 31-630): as the sequence (P09483 31-630) above
Chain of α4β2 nicotinic receptors (P12390 25-500): as the sequence (P12390 25-500) above

α7 receptors = experiment: Residual inhibition of ACh response after exposure to compound, oocytes; type: cell-based; settings: 100 pM compound
Experimental: Peak currents were measured for responses of α4β2 receptors to agonist application, because desensitization of this receptor subtype was slow enough not to affect the concentration-response relation measured in this manner. Currents resulting from agonist application to the more rapidly desensitizing α7 receptors were integrated over a period of […] after application commenced. To compare data obtained from different oocytes, a standard response normalization procedure was used. Agonist responses of a particular oocyte were always normalized relative to its response to a standard acetylcholine (ACh) control. Before actual measurements of agonist properties, several ACh pulses separated by 5-mm intervals were applied until the responses of the oocyte to ACh became steady. After washing for 5 mm, the peak current response to the test compound was measured. After another 5-mm washing period, ACh was again applied to measure the residual responsiveness of the receptors to ACh after exposure to the test substance. The concentration-response data were fitted with a modified Hill equation, I=Imax [agonist]^nH/([agonist]^nH+EC50), to estimate apparent efficacy (normalized maximal response) and EC50.
The numbers in parentheses in Table 2 are calculated EC50, values for just the ionized forms.

[2] = Kitagawa et al. 2003; cited from earlier work
[3] = displacement of [3H]-MCC, mean of two experiments, Cheng-Prusoff with Kd 5 nM, read-out: α4β2 Ki
[4] = inhibitory concentration of the ionized form, calculated assuming only the cationic form interacts, read-out: [3H] Cytisine Binding Ki(Ion)
[5] = rat brain membranes, radioligand 1 nM, mean±S.E.M. of three experiments, read-out: [3H] Cytisine Binding Ki ± S.E.M.

Row | Compound | Ki ([1]; read-out: α4β2 Ki) [nM] | further results
1 | Cc1cc(C)c(C=C2CCCN=C2c2cccnc2)c(C)c1 [GTS-40, 3-(2,46,-Trimethylbenzylidene)anabaseine] | 500 | 
2 | 6′-Methyl-3-(2,4-dimethoxybenzylidene)anabaseine [GTS-57] |  | Ki [1, 3]: 500 nM
3 | COc1cc(C=C2CCCN=C2c2cccnc2)ccc1O [GTS-23, 3-(3-Methoxy-4-hydroxybenzylidene)anabaseine] | > 5000 | 
4 | COc1ccc(C=C2CCCN=C2c2cccnc2)cc1 [GTS-2, 3-(4-Methoxybenzylidene)anabaseine] |  | Ki [1]: 320 nM
5 | COc1ccc(/C=C2\CCCN=C2c2cccnc2)c(OC)c1 [GTS-21, 3-(2,4-Dimethoxybenzylidene)anabaseine] | 120 | Ki (α4β2 nicotinic receptors; [4]): 158 nM; Ki (α4β2 nicotinic receptors; [5]): 253 ± 37 nM; residual inhibition (reduced response to ACh 5 min after washing) (α7 receptors): ~50%; human toxicity in phase I clinical trial [2]: did not display significant human toxicity
6 | O=[N+]([O-])c1ccc(C=C2CCCN=C2c2cccnc2)cc1 [GTS-3, 3-(4-Nitrobenzylidene)anabaseine] | > 5000 | 
7 | Cc1ccc(C=C2CCCN=C2c2cccnc2)cc1 [GTS-48, 3-(4-Methylbenzylidene)anabaseine] | 2000 | 
8 | COc1ccc(C=C2CCCN=C2c2ccccc2)c(OC)c1 [GTS-63, 2-Phenyl-3-(2,4-dimethoxybenzylidene)-4,5,6-trihydropyridine] | > 5000 | 
9 | CN(C)c1ccc(C=CC=C2CCCN=C2c2cccnc2)cc1 [DMACA, 3-(4-Dimethylaminocinnamylidene)anabaseine] | 400 | 
10 | COc1ccc(C=C2CCC[N+](C)=C2c2cccnc2)c(OC)c1 [GTS-58, 1-Methyl-3-(2,4-djmethoxybenzylidene)anabaseine trifluoroacetate] |  | Ki [1, 3]: > 5000 nM
11 | CN(C)CCCOc1ccc(C=C2CCCN=C2c2cccnc2)cc1 [GTS-15, 3-(4-Dimethylaminopropoxy-benzylidene)anabaseine] | 1600 | 
12 | CCCCCOc1ccc(C=C2CCCN=C2c2cccnc2)c(OCCCCC)c1 [GTS-55, 3-(2,4-Dipentoxybenzylidene)anabaseine] | 2500 | 
13 | COc1ccccc1C=C1CCCN=C1c1cccnc1 [GTS-16, 3-(2-Methoxybenzylidene)anabaseine] | 830 | 
14 | C(=Cc1ccco1)C=C1CCCN=C1c1cccnc1 [GTS-44, 3-(2-Furylpropenylidene)anabaseine] | 800 | 
15 | COc1cc(OC)c(C=C2CCCN=C2c2cccnc2)c(OC)c1 [GTS-35, 3-(2,4,6-Trimethoxybenzylidene)anabaseine] | 170 | 
16 | COc1ccc(C=C2CCCN=C2c2cccnc2)c(O)c1 [GTS-51, 3-(2-Hydroxy-4-methoxybenzylidene)anabaseine] | 1500 | Ki (α4β2 nicotinic receptors; [4]): 128 nM; Ki (α4β2 nicotinic receptors; [5]): 387 ± 25 nM
17 | CCCOc1ccc(C=C2CCCN=C2c2cccnc2)c(OCCC)c1 [GTS-53, 3-(2,4-Dipropoxybenzylidene)anabaseine] | 4500 | 

Row | Compound | Ki ([1]; read-out: α4β2 Ki) [nM] | further results
18 | CCCCCOc1ccc(C=C2CCCN=C2c2cccnc2)c(O)c1 [GTS-56, 3-(2-Hydroxy-4-pentoxybenzylidene)anabaseine] | 250 | 
19 | Oc1ccc(C=C2CCCN=C2c2cccnc2)cc1 [GTS-7, 3-(4-Hydroxybenzylidene)anabaseine] | 25 | 
20 | Cc1ncccc1C1=NCCCC1 [GTS-27, 2′-Methylanabaseine] |  | Ki [1]: 33000 nM
21 | N#Cc1ccc(C=C2CCCN=C2c2cccnc2)cc1 [GTS-5, 3-(4-Cyanobenzylidene)anabaseine] | > 5000 | 
22 | CC(C)Oc1ccc(C=C2CCCN=C2c2cccnc2)c(OC(C)C)c1 [GTS-54, 3-(2,4-Diisopropoxybenzylidene)anabaseine] | 1000 | 
23 | C(=C1CCCN=C1c1cccnc1)c1ccco1 [GTS-43, 3-(2-Furylidene)anabaseine] | 640 | 
24 | Nc1ccc(C=C2CCCN=C2c2cccnc2)cc1 [GTS-13, 3-(4-Aminobenzylidene)anabaseine] | 170 | 
25 | Clc1ccc(C=C2CCCN=C2c2cccnc2)c(Cl)c1 [GTS-38, 3-(2,4-Dichlorobenzylidene)anabaseine] | 2000 | 
26 | COc1cccc(C=C2CCCN=C2c2cccnc2)c1 [GTS-20, 3-(3-Methoxybenzylidene)anabaseine] |  | Ki [1]: 4000 nM
27 | Clc1ccc(C=C2CCCN=C2c2cccnc2)cc1 [GTS-8, 3-(4-Chlorobenzylidene)anabaseine] | > 5000 | 
28 | Cc1ccc(C=C2CCCN=C2c2cccnc2)c(C)c1 [GTS-39, 3-(2,4-Dimethylbenzylidene)anabaseine] | 1000 | 
29 | Cc1ccncc1C1=NCCCC1 [GTS-28, 4′-Methylanabaseine] |  | Ki [1]: 3800 nM
30 | Cc1cncc(C2=NCCCC2)c1 [GTS-60, 5′-Methylanabaseine] |  | Ki [1]: 130 nM
31 | Cc1ccc(C2=NCCCC2)cn1 [GTS-26, 6′-Methylanabaseine] |  | Ki [1]: 26 nM
32 | Oc1ccc(C=C2CCCN=C2c2cccnc2)c(O)c1 [GTS-52, 3-(2,4-Dihydroxybenzylidene)anabaseine] | 450 | Ki (α4β2 nicotinic receptors; [4]): 103 nM; Ki (α4β2 nicotinic receptors; [5]): 206 ± 16 nM
33 | C(=C1CCCN=C1c1cccnc1)c1ccoc1 [GTS-45, 3(3-Furylidene)anabaseine] | 860 | 
